Results taken from patent US20240108740A1, “THERAPEUTIC COMPOSITIONS INCLUDING SPN10 AND USES THEREOF” (Stealth BioTherapeutics Inc., priority 2022, published 2024).
Residues, ends and D or L forms follow the SMILES beside them.

Experiments:
[1] = system: Isolated guinea pig hearts; assay: Example 6: isolated hearts, 18 hours cold ischemic storage and warm reperfusion
Procedure: Isolated guinea pig hearts will be perfused with St. Thomas solution alone or St. Thomas solution containing peptide conjugates (1-100 nM), aromatic-cationic peptides (e.g., an equivalent molar dose of aromatic-cationic peptide based on the concentration of the aromatic-cationic peptide administered in the peptide conjugate treatment group), SPN10(s) (e.g., an equivalent molar dose of SPN10 based on the concentration of SPN10 administered in the peptide conjugate treatment group), or SPN10(s) in combination with aromatic-cationic peptides (e.g., an equivalent molar dose of SPN10 based on the concentration of SPN10 administered in the peptide conjugate treatment group and an equivalent molar dose of aromatic-cationic peptide based on the concentration of aromatic-cationic peptide administered in the peptide conjugate treatment group) for 3 minutes and then stored in the same solution at 4° C. for 18 hours. After ischemic storage, hearts will be re-perfused with 34° C. Krebs-Henseleit solution for 90 min. Hearts freshly isolated from guinea pigs will be used as controls.
The hearts will be fixed in paraffin and sliced for immunostaining with an anti-CD36 rabbit polyclonal antibody. It is anticipated that the sections from a representative heart stored in St. Thomas solution for 18 hours at 4° C. will show increased CD36 staining compared to freshly isolated controls.
It is also anticipated that there will be a decrease in lipid peroxidation in the hearts treated with peptide conjugates, aromatic-cationic peptides, or SPN10(s) (with or without aromatic-cationic peptides). […]

[2] = system: fatty (fa/fa) Zucker rats; assay: Example 36: insulin resistance in fatty Zucker rats; format: in vivo, rat; details: approximately 6 weeks
Procedure: Peptide conjugates (1.0-5.0 mg/kg body wt); aromatic-cationic peptides (an equivalent molar dose of aromatic-cationic peptide based on the concentration of the aromatic-cationic peptide administered in the peptide conjugate treatment group); SPN10(s) (an equivalent molar dose of SPN10 based on the concentration of SPN10 administered in the peptide conjugate treatment group); or SPN10(s) in combination with aromatic-cationic peptides (e.g., an equivalent molar dose of SPN10 based on the concentration of SPN10 administered in the peptide conjugate treatment group and an equivalent molar dose of aromatic-cationic peptide based on the concentration of aromatic-cationic peptide administered in the peptide conjugate treatment group) will be administered to the rats intraperitoneally (i.p.) or orally (drinking water or oral gavage).
Physiological parameters measured will include body weight, fasting glucose/insulin/free fatty acid, oral glucose tolerance (OGTT), in vitro muscle insulin sensitivity (in vitro incubation), biomarkers of insulin signaling (Akt-P, IRS-P), mitochondrial function studies on permeabilized fibers (respiration, H2O2 production), biomarkers of intracellular oxidative stress (lipid peroxidation, GSH/GSSG ratio, aconitase activity), and mitochondrial enzyme activity. Control animals will include wild-type and untreated fatty rats. […]

## N=C(N)NCCC[C@H](NC(=O)[C@@H](N)Cc1c[nH]c2ccccc12)C(=O)N[C@@H](Cc1c[nH]c2ccccc12)C(=O)N[C@@H](CCCCN)C(N)=O [SPN10, H-L-Trp-L-Arg-L-Trp-L-Lys-NH2] (H-WRWK-NH2)
[1]
  coronary blood flow after cold ischemic storage and warm reperfusion: significant improvement of coronary blood flow
[1]; 18 hours cold ischemia, 90 minutes reperfusion
  HNE staining in stored hearts: reduced
[1]; St. Thomas solution, 18 hours, 4° C.
  CD36 staining in stored hearts: significantly reduced
[2]; Zucker rats (~12 weeks of age)
  whole body and muscle insulin resistance (treatment): reduce the whole body and muscle insulin resistance
[2]; young Zucker rats (~3-4 weeks of age)
  development of whole body and muscle insulin resistance (prevention): attenuate or prevent the development of whole body and muscle insulin resistance
